Experimental data published in PubChem BioAssay AID1845211 (Molecular Pharmacology Branch, DTP, NCI, 2023).

Test system: NCI-H322M multicellular tumor spheroids, viability (% test/control)
Experiment: Anticancer human tumor NCI-H322M cell line growth inhibition;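 as to viability, T/C: spheroids exposed to compound for seven days before readout; 100% = DMSO vehicle control wells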
Conditions: for IC50: curve of first compound; for viability, T/C: stronger effect = lower value
In short: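 Complex tumor spheroids combined malignant cells with endothelial cells and mesenchymal stem cells. DNA-damaging drugs and DNA repair inhibitors were tested alone and in combination, at half-log dilutions down from clinical Cmax (top 10 microM if Cmax unknown), 0.25% DMSO final.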

[1] = second compound 0.003 µM, first compound 0.00949 µM
[2] = second compound 0.003 µM, first compound 0.03 µM
[3] = second compound 0.003 µM, first compound 0.0949 µM
[4] = second compound 0.003 µM, first compound 0.3 µM
[5] = second compound 0.003 µM, first compound 0.949 µM
[6] = second compound 0.003 µM, first compound 3 µM

SMILES: Cc1sc2c(c1C)C(c1ccc(Cl)cc1)=NC(CC(=O)Nc1ccc(O)cc1)c1nnc(C)n1-2 (stereo not given) + CC[C@@]1(O)C(=O)OCc2c1cc1n(c2=O)Cc2cc3c(CN(C)C)c(O)ccc3nc2-1
- IC50 (second compound 0.003 µM): > 3000 nM
- IC50 (second compound 0.00949 µM): > 3000 nM
- IC50 (second compound 0.03 µM): > 3000 nM
- IC50 (second compound 0.0949 µM): > 3000 nM
- IC50 (second compound 0.3 µM): > 3000 nM
- viability, T/C [1]: 105%
- viability, T/C [2]: 139%
- viability, T/C [3]: 132%
- viability, T/C [4]: 134%
- viability, T/C [5]: 95.3%
- viability, T/C [6]: 76.2%
- viability, T/C (second compound 0.00949 µM, first compound 0.00949 µM): 106%
- viability, T/C (second compound 0.00949 µM, first compound 0.03 µM): 112%
- viability, T/C (second compound 0.00949 µM, first compound 0.0949 µM): 140%
- viability, T/C (second compound 0.00949 µM, first compound 0.3 µM): 118%
- viability, T/C (second compound 0.00949 µM, first compound 0.949 µM): 79%
- viability, T/C (second compound 0.00949 µM, first compound 3 µM): 77.2%
- viability, T/C (second compound 0.03 µM, first compound 0.00949 µM): 107%
- viability, T/C (second compound 0.03 µM, first compound 0.03 µM): 127%
- viability, T/C (second compound 0.03 µM, first compound 0.0949 µM): 126%
- viability, T/C (second compound 0.03 µM, first compound 0.3 µM): 103%
- viability, T/C (second compound 0.03 µM, first compound 0.949 µM): 82.2%
- viability, T/C (second compound 0.03 µM, first compound 3 µM): 73.7%
- viability, T/C (second compound 0.0949 µM, first compound 0.00949 µM): 90.7%
- viability, T/C (second compound 0.0949 µM, first compound 0.03 µM): 99.1%
- viability, T/C (second compound 0.0949 µM, first compound 0.0949 µM): 112%
- viability, T/C (second compound 0.0949 µM, first compound 0.3 µM): 89.2%
- viability, T/C (second compound 0.0949 µM, first compound 0.949 µM): 79.8%
- viability, T/C (second compound 0.0949 µM, first compound 3 µM): 64.4%
- viability, T/C (second compound 0.3 µM, first compound 0.00949 µM): 74.5%
- viability, T/C (second compound 0.3 µM, first compound 0.03 µM): 73.5%
- viability, T/C (second compound 0.3 µM, first compound 0.0949 µM): 90.2%
- viability, T/C (second compound 0.3 µM, first compound 0.3 µM): 80.5%
- viability, T/C (second compound 0.3 µM, first compound 0.949 µM): 71%
- viability, T/C (second compound 0.3 µM, first compound 3 µM): 58.1%

SMILES: COc1ccc([C@@H](O)c2cc(-c3ncnc4cc(N5CCOCC5)ccc34)c(F)cc2Cl)nn1 + COc1cc2c(cc1O)CCNC21CSC2c3c(OC(C)=O)c(C)c4c(c3C(COC1=O)N1C(O)C3Cc5cc(C)c(OC)c(O)c5C(C21)N3C)OCO4
- IC50 (second compound 30 pM): 2340 nM
- IC50 (second compound 94.9 pM): 1640 nM
- IC50 (second compound 0.0003 µM): 1400 nM
- IC50 (second compound 0.000949 µM): 433 nM
- IC50 (second compound 0.003 µM): < 31.6 nM
- viability, T/C (second compound 30 pM, first compound 0.0316 µM): 101%
- viability, T/C (second compound 30 pM, first compound 0.1 µM): 75.9%
- viability, T/C (second compound 30 pM, first compound 0.316 µM): 79.1%
- viability, T/C (second compound 30 pM, first compound 1 µM): 62.1%
- viability, T/C (second compound 30 pM, first compound 3.16 µM): 45.3%
- viability, T/C (second compound 30 pM, first compound 10 µM): 30.4%
- viability, T/C (second compound 94.9 pM, first compound 0.0316 µM): 96%
- viability, T/C (second compound 94.9 pM, first compound 0.1 µM): 89.1%
- viability, T/C (second compound 94.9 pM, first compound 0.316 µM): 82.2%
- viability, T/C (second compound 94.9 pM, first compound 1 µM): 55.8%
- viability, T/C (second compound 94.9 pM, first compound 3.16 µM): 41.5%
- viability, T/C (second compound 94.9 pM, first compound 10 µM): 32%
- viability, T/C (second compound 0.0003 µM, first compound 0.0316 µM): 106%
- viability, T/C (second compound 0.0003 µM, first compound 0.1 µM): 94.1%
- viability, T/C (second compound 0.0003 µM, first compound 0.316 µM): 71.1%
- viability, T/C (second compound 0.0003 µM, first compound 1 µM): 56.4%
- viability, T/C (second compound 0.0003 µM, first compound 3.16 µM): 38.2%
- viability, T/C (second compound 0.0003 µM, first compound 10 µM): 26.8%
- viability, T/C (second compound 0.000949 µM, first compound 0.0316 µM): 84.2%
- viability, T/C (second compound 0.000949 µM, first compound 0.1 µM): 75.7%
- viability, T/C (second compound 0.000949 µM, first compound 0.316 µM): 58.7%
- viability, T/C (second compound 0.000949 µM, first compound 1 µM): 28.3%
- viability, T/C (second compound 0.000949 µM, first compound 3.16 µM): 5.57%
- viability, T/C (second compound 0.000949 µM, first compound 10 µM): 2.25%
- viability, T/C (second compound 0.003 µM, first compound 0.0316 µM): 3.77%
- viability, T/C (second compound 0.003 µM, first compound 0.1 µM): 3.3%
- viability, T/C (second compound 0.003 µM, first compound 0.316 µM): 5.4%
- viability, T/C (second compound 0.003 µM, first compound 1 µM): 1.15%
- viability, T/C (second compound 0.003 µM, first compound 3.16 µM): 1.98%
- viability, T/C (second compound 0.003 µM, first compound 10 µM): 2.69%

SMILES: Cn1ncnc1[C@H]1c2n[nH]c(=O)c3cc(F)cc(c23)N[C@@H]1c1ccc(F)cc1 + COc1cc2c(cc1O)CCNC21CSC2c3c(OC(C)=O)c(C)c4c(c3C(COC1=O)N1C(O)C3Cc5cc(C)c(OC)c(O)c5C(C21)N3C)OCO4
- IC50 (second compound 30 pM): > 3000 nM
- IC50 (second compound 94.9 pM): > 3000 nM
- IC50 (second compound 0.0003 µM): > 3000 nM
- IC50 (second compound 0.000949 µM): 1520 nM
- IC50 (second compound 0.003 µM): < 9.49 nM
- viability, T/C (second compound 30 pM, first compound 0.00949 µM): 78.7%
- viability, T/C (second compound 30 pM, first compound 0.03 µM): 89.2%
- viability, T/C (second compound 30 pM, first compound 0.0949 µM): 68.8%
- viability, T/C (second compound 30 pM, first compound 0.3 µM): 82%
- viability, T/C (second compound 30 pM, first compound 0.949 µM): 75.2%
- viability, T/C (second compound 30 pM, first compound 3 µM): 65.6%
- viability, T/C (second compound 94.9 pM, first compound 0.00949 µM): 71.4%
- viability, T/C (second compound 94.9 pM, first compound 0.03 µM): 78.2%
- viability, T/C (second compound 94.9 pM, first compound 0.0949 µM): 78.8%
- viability, T/C (second compound 94.9 pM, first compound 0.3 µM): 70.5%
- viability, T/C (second compound 94.9 pM, first compound 0.949 µM): 68.2%
- viability, T/C (second compound 94.9 pM, first compound 3 µM): 59.5%
- viability, T/C (second compound 0.0003 µM, first compound 0.00949 µM): 88.8%
- viability, T/C (second compound 0.0003 µM, first compound 0.03 µM): 85%
- viability, T/C (second compound 0.0003 µM, first compound 0.0949 µM): 82.9%
- viability, T/C (second compound 0.0003 µM, first compound 0.3 µM): 77.8%
- viability, T/C (second compound 0.0003 µM, first compound 0.949 µM): 67.3%
- viability, T/C (second compound 0.0003 µM, first compound 3 µM): 62.9%
- viability, T/C (second compound 0.000949 µM, first compound 0.00949 µM): 73.6%
- viability, T/C (second compound 0.000949 µM, first compound 0.03 µM): 68.6%
- viability, T/C (second compound 0.000949 µM, first compound 0.0949 µM): 72.5%
- viability, T/C (second compound 0.000949 µM, first compound 0.3 µM): 64.4%
- viability, T/C (second compound 0.000949 µM, first compound 0.949 µM): 56.9%
- viability, T/C (second compound 0.000949 µM, first compound 3 µM): 40.3%
- viability, T/C [1]: 6.87%
- viability, T/C [2]: 9.48%
- viability, T/C [3]: 6.81%
- viability, T/C [4]: 3.83%
- viability, T/C [5]: 10.6%
- viability, T/C [6]: 1.7%
